Strand notation (5' to 3'): a small letter for the sugar, then the base; units joined by * are phosphorothioate-linked, units joined directly phosphodiester-linked; [ ] holds rarer units or linkages, { } end groups; capitals alone tell only the bases. {ppp} = triphosphate; r = 2'-OH (RNA); f = 2'-fluoro
Key:
WM266-4 cells [1] = assay type: cell-based; conditions: MTT
Description: (§1) For the intracellular delivery of immune stimulatory RNAs, RNAs were transfected with the DharmaFECT® Duo liposomal transfection reagent (Thermo Scientific, Waltham, Mass.) at a transfection reagent (μl):RNA (μg) ratio of 3.75:1, according to the manufacturer's instructions. Unless otherwise stated, for the induction of innate immune responses and apoptosis, immune stimulatory RNAs (500 ng/ml) were transfected into 50 to 70% confluent cells. Cells were incubated with an RNA-transfection agent complex for 5 h, followed by replenishment with fresh culture medium. To electroporate cells, 1×10^5 cells suspended in 200 μl Opti-MEM I (Invitrogen) were mixed with 1 μg of immune stimulatory RNAs or 5 μg of 2′Fluoro pyrimidine ribonucleoside triphosphate in 2-mm cuvettes and were electroporated at 300 V for 500 μs using an Electro Square Porator ECM 830 (BTX, San Diego, Calif.). For the knockdown of RNA-sensing PRRs, cells were transfected with PRR-specific siRNAs (25 nM) twice at 2-day intervals using DharmaFECT®-1 (Thermo Scientific). At 5 h after the second siRNA transfection, cells were harvested, replated into a 96-well plate and incubated overnight. Cells were then treated with immune stimulatory RNA transfections. Staurosporine (2 μM) (Sigma, St Louis, Mo.) and recombinant human IFNβ (20 ng/ml) (PeproTech, Rocky Hill, N.J.) were used as positive controls of anti-melanoma cytotoxicity. B18R (100 ng/ml) (eBioscience, San Diego, Calif.) was added directly to the growth media of cells to neutralize IFNβ.
(§2) Growth inhibition relative to untreated cells was quantified at 72 h after RNA transfection using an MTT Cell Proliferation Assay Kit (Cayman Chemicals, Ann Arbor, Mich.), according to the manufacturer's instructions. The percent growth inhibition was calculated by using the following equation: % growth inhibition=([O.D.]untreated−[O.D.]treated)/[O.D.]untreated×100. The induction of cell death was measured 48 h after RNA transfection by flow cytometry after staining with Annexin V-PE and 7-Aminoactinomycin D (7-AAD) using the PE Annexin V Apoptosis Detection Kit I (BD Biosciences, San Jose, Calif.) and analyzed using the CellQuest software (BD Biosciences).

IFNβ = IFNβ ELISA of transfected melanoma cell supernatants; assay type: cell-based, human
Description: as §1, with “2'Fluoro” for “2′Fluoro”, “B18R” left out, “IFNβ. Cells were transfected with RNAs as described above. At 24 hours after RNA transfection, culture supernatants were collected and stored at -80° C. for later analyses. The production of human IL-8 was analyzed with a human IL-8 ELISA kit (eBioscience). IFN-β production was determined with a human IFN-β ELISA kit (PBL Biomedical Laboratories, Piscataway, N.J.) by following the manufacturer's instructions.” for “IFNβ.”

RIG-I, MDA-5, and PKR = experiment: Western blot of RNA-sensing PRR expression after transfection; assay type: cell-based, human; conditions: 24 hours after treatment
Description: FIG. 2A is a set of FACS plots showing induction of apoptosis. WM266-4 cells were incubated with either liposome (DF) alone or 5′ppp 2′F 10F-liposome complex (10F/DF). At 5 h after incubation, cells were replenished with fresh culture medium. Cells were then incubated for an additional 48 hours, harvested and analyzed for cell death. FIG. 2B is a set of Western blots showing activation of caspases and PARP after transfection. WM266-4 cells were either mock-treated, treated with the 5′ppp 2′F 10F without the transfection reagent, or with the 5′ppp 2′F 10E-transfection reagent complex at the indicated concentrations (1 μg/ml or 0.5 μg/ml). The activation of caspase-7, -9, and PARP was assessed by western blot using antibodies specific to the activated (cleaved) proteins (24 h after treatment). Staurosporine-treated cells were used as a positive control. […] The growth inhibition was assessed at 72 h after electroporation. […] WM266-4 cells were treated as in (FIG. 2B), and the expression of RIG-I, MDA-5, and PKR was analyzed at 24 hours after treatments. […]
Cell lysates were prepared in 1×RIPA buffer (Sigma) in the presence of the complete protease inhibitor cocktail (Roche). […] When different proteins were sequentially detected on the same membrane, membranes were treated for 8 minutes with Restore Western Blot Stripping Buffer (Thermo Scientific), washed, blocked and probed again, as described above. […]

Human TLR7 = target: T1, Human TLR7 (Homo sapiens, UniProt Q9NYK1); experiment: IL-8 production by human TLR7-expressing HEK293 cells; assay type: cell-based
T1 construct: expressed in transfected cells; host or cells: HEK293 (HEK-TLR7), gift of Dr. Todd Brennan, Duke University
T1 sequence (Q9NYK1 27-1049): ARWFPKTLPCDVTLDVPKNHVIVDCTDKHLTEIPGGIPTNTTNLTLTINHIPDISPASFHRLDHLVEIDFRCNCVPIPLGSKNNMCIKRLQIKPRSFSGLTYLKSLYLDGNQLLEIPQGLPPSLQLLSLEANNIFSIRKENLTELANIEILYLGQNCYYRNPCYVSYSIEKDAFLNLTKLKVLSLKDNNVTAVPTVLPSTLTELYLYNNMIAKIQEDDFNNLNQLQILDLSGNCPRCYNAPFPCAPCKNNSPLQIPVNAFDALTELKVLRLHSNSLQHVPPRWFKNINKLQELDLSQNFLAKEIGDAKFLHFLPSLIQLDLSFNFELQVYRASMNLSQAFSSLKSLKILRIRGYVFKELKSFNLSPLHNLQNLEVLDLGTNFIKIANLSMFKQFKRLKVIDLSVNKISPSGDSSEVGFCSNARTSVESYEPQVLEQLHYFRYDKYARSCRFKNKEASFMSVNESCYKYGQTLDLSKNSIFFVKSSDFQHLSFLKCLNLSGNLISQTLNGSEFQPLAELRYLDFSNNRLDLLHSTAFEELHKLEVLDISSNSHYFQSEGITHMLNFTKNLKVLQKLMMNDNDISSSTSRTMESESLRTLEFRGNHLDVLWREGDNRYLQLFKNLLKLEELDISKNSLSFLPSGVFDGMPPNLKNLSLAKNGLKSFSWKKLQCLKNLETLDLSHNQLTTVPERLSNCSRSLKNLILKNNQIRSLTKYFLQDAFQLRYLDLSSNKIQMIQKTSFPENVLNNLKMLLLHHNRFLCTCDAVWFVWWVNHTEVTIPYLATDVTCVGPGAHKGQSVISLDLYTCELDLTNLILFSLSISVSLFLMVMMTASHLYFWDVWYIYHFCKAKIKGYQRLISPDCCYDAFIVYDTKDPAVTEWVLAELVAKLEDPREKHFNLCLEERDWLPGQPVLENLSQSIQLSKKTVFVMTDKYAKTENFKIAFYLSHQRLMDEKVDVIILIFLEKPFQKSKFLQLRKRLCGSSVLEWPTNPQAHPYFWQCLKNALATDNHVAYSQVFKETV
Description: (§3) The human TLR3 reporter cell, HEK-hTLR3-NFκB/SEAP was purchased from Invivogen. These cells were stably co-transfected with the human TLR3 gene and an inducible SEAP (secreted embryonic alkaline phosphatase) reporter gene into HEK293 cells. The SEAP gene is placed under the control of NF-κB and AP-1. […] SEAP gene expression was measured using the SEAP detection media QUANTI-BLUE (Invivogen), according to the manufacturer's instructions. FIG. 3B is a graph showing that TLR7 is not stimulated by the ssRNAs. Human TLR7-expressing HEK293 cells were kindly provided by Dr. Todd Brennan (Duke University, Durham, N.C.). Treatment with R848 but not with polyI:C, polyI:C-DF and 5′ppp 2′F 10F-DF complexes stimulated HEK-TLR7 cells to produce the inflammatory cytokine IL-8. The data represent the mean of two experiments. Error bars represent the S.D.

human TLR3 = target: T2, human TLR3 (Homo sapiens, UniProt O15455); experiment: HEK-hTLR3-NFκB/SEAP reporter assay; assay type: cell-based; conditions: QUANTI-BLUE
T2 construct: host or cells: HEK293 (HEK-hTLR3-NFκB/SEAP)
Description: as §3

WM266-4 cells [2] = experiment: Apoptosis / cell death by Annexin V-PE and 7-AAD flow cytometry; assay type: cell-based, human; conditions: aptamer treated with bacterial alkaline phosphatase (BAP), 0.125 μg/ml
Description: For the intracellular delivery of immune stimulatory RNAs, RNAs were transfected with the DharmaFECT® Duo liposomal transfection reagent (Thermo Scientific, Waltham, Mass.) at a transfection reagent (μl):RNA (μg) ratio of 3.75:1, according to the manufacturer's instructions. Unless otherwise stated, for the induction of innate immune responses and apoptosis, immune stimulatory RNAs (500 ng/ml) were transfected into 50 to 70% confluent cells. Cells were incubated with an RNA-transfection agent complex for 5 h, followed by replenishment with fresh culture medium. […]
as §2

T2 sequence (O15455 24-904): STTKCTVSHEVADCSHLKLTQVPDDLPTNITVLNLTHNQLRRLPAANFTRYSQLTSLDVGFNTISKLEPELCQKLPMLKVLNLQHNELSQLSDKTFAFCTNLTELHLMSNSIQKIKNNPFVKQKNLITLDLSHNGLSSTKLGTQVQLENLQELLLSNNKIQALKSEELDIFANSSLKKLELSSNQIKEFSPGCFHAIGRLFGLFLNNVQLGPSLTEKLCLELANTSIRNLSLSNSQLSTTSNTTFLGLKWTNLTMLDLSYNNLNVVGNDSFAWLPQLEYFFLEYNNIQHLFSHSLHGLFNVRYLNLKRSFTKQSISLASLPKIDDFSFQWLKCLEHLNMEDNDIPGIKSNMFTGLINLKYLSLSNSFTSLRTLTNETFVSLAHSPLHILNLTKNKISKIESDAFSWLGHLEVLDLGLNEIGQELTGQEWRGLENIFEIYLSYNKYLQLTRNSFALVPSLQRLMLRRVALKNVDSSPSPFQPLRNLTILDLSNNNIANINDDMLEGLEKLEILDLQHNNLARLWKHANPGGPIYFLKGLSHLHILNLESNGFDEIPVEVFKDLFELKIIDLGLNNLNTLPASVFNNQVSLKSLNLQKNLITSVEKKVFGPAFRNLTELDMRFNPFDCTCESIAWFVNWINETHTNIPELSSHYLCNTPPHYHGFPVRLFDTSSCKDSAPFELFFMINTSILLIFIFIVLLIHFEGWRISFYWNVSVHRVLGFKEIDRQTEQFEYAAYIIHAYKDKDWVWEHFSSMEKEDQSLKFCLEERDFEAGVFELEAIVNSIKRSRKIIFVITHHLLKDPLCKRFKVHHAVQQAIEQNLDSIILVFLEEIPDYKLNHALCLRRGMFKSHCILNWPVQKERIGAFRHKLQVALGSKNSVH

Compound: Poly(U)30: 5′ppp-2′F ssRNA of 30 uridines, minimal secondary structure, SEQ ID NO: 13 (UUUUUUUUUUUUUUUUUUUUUUUUUUUUUU; 5'-triphosphate, 2'-fluoro modifications; Synthetic RNA Aptamer Poly(U)30)
- growth inhibition / cytotoxicity (anti-melanoma effect), in words (WM266-4 cells [1]; liposomal transfection, 72 h): not

Compound: Motif 3: 30-mer extended variant of Motif 2, 3′overhang stem-loop, SEQ ID NO: 17 ({ppp}-rGrGrAfUrGfCrGrGfUrAfCfCfUrGrAfCrArGfCrAfUfCfUfUrGrArArAfUrA)
- cytotoxicity compared to 10F treatment, in words (WM266-4 cells [1]): not statistically significant
- IFNβ induction compared to 10F treatment, in words (IFNβ; IFNβ ELISA): not statistically significant

Compound: CN[C@@H]1C[C@H]2O[C@@](C)([C@@H]1OC)n1c3ccccc3c3c4c(c5c6ccccc6n2c5c31)C(=O)NC4 [staurosporine]
- induction of RIG-I, MDA-5 and PKR expression (RIG-I, MDA-5, and PKR): not observed

Compound: Motif 1: 29-mer 5′ppp-2′F ssRNA, 5′overhang stem-loop, first 29 nucleotides of 10F, SEQ ID NO: 14 ({ppp}-rGrGrGrArGrGrAfCrGrAfUrGfCrGrGfUrAfCfCfUrGrAfCrArGfCrAfUfC)
- cytotoxicity compared to 10F treatment, in words (WM266-4 cells [1]): significantly lower
- IFNβ induction compared to 10F treatment, in words (IFNβ; IFNβ ELISA): significantly lower

Compound: Motif 1A: 37-mer extended variant of Motif 1 with longer 5′overhang, SEQ ID NO: 15 ({ppp}-rGrGrGfUrArArGfUrGrGrGrArGrGrAfCrGrAfUrGfCrGrGfUrAfCfCfUrGrAfCrArGfCrAfUfC)
- cytotoxic effect compared to treatment with Motif 1 (WM266-4 cells [1]): significantly decreased
- IFNβ production compared to treatment with Motif 1 (IFNβ; IFNβ ELISA): significantly decreased

Compound: CCOCc1nc2c(N)nc3ccccc3c2n1CC(C)(C)O [Aptamer R848, R848]
- stimulation of HEK-TLR7 cells to produce IL-8 (Human TLR7): stimulated
- stimulation of TLR3 reporter cells (SEAP) (human TLR3): not

Compound: 9.14T10: 5′ppp 2′F ssRNA aptamer, 60 nt, von Willebrand Factor-specific, SEQ ID NO: 6 ({ppp}-rGrGrGrArGrGfUrGrGrAfCrGrArAfCfUrGfCfCfCfUfCrArGfCfUrAfCfUfUfUfCrAfUrGfUfUrGfCfUrGrAfCrGfCrAfCrArGrAfCrGrAfCfUfCrGfCfUrG) [Aptamer 9.14T10]
- IFNβ production after dephosphorylation of the aptamer (IFNβ; aptamer treated with bacterial alkaline phosphatase (BAP), 0.125 μg/ml): partially prevented
- apoptosis after dephosphorylation of the aptamer (WM266-4 cells [2]): partially prevented

Compound: polyI:C
- stimulation of HEK-TLR7 cells to produce IL-8 (Human TLR7): not
- stimulation of TLR3 reporter cells (SEAP) (human TLR3): specifically stimulated

Source: US10350158B2, “2′ fluoro-modified RNAs as immunostimulators” (DUKE UNIVERSITY, priority 2013, dated 2019)
